For 13 compounds, GI50 and TGI results are on record in PubChem BioAssay (NCI).

What all share (assay): NCI-60 cell line screen, 48 h
The test system of experiment [1] is UACC-257 melanoma.
The test system of experiment [2] is SK-MEL-2 melanoma.
Experiment [3] deals with NCI-H226 lung.
Experiment [4] relates to CCRF-CEM leukemia.
The subject of experiment [5] is HCT-15 colon.
Experiment [6] relates to DU-145 prostate.
The test system of experiment [7] is SK-MEL-28 melanoma.
Experiment [8] relates to 786-0 renal.
The subject of experiment [9] is M14 melanoma.
For experiment [10], the system named is SF-295 CNS.

Each structure is given as a SMILES string.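 Each compound was tested at five concentrations against cells in 96-well plates for 48 hours. GI50: concentration for 50% inhibition of growth. TGI: total growth inhibition.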

Turning to `COc1cc(S(C)(=O)=O)ccc1Nc1nc2ccc(-c3ccc(NC(=O)[C@H](C)c4ccc(F)cc4)cc3)cn2n1`, the GI50 is more than 100 µM in [1]; more than 100 µM in experiment [2]; more than 100 µM in [3]; 0.62 µM in experiment [4]; 0.075 µM in experiment [5]; more than 100 µM in experiment [6]. Besides, the GI50 in experiment [7] was more than 100 µM; in experiment [8] it was more than 100 µM; in experiment [9], 33.2 µM; in [10], more than 100 µM. The TGI in experiment [1], in experiment [2], in [3], in experiment [4], in experiment [5] and in experiment [6] was more than 100 µM each time. In addition, the TGI in experiment [7], in [8], in [9] and in [10] was more than 100 µM throughout.

With `O=C1Nc2cccc3cc(NCC(O)CCl)cc1c23` (stereo not given), the TGI in [1] was more than 100 µM; in experiment [2] it was 69.9 µM; in experiment [3], more than 100 µM; in experiment [4] it was more than 100 µM; in experiment [5], more than 100 µM; in experiment [6], more than 100 µM. Further, the TGI in experiment [7], in experiment [8], in experiment [9] and in experiment [10] was more than 100 µM throughout.

As to `Cn1c(=O)c2c(ncn2CN2CCN(Cn3cnc4c3c(=O)n(C)c(=O)n4C)CC2)n(C)c1=O`, the TGI was more than 100 µM in [1]; more than 100 µM in [2]; more than 100 µM in [3]; 39.5 µM in experiment [4]; more than 100 µM in [5]; more than 100 µM in experiment [6]. Also, the TGI in experiment [7], in [8], in experiment [9] and in experiment [10] was more than 100 µM each time.

Regarding `Cc1ccc(NC(=O)Cn2c(Br)nc3c2c(=O)n(C)c(=O)n3C)cc1`, the GI50 in experiment [1] was 13.9 µM; in experiment [2] it was 13.4 µM; in [3], 2.07 µM; in experiment [4] it was 17.3 µM; in experiment [5], 12.2 µM; in [6], 4.64 µM. The GI50 in experiment [7] is 11.4 µM; in experiment [8], 2.32 µM; in [9] it was 5.98 µM; in [10], 9.84 µM. The TGI in [1] came out at 28.8 µM; in [2] it was 27.4 µM; in experiment [3] it was 4.76 µM; in experiment [4] it was 65.8 µM; in experiment [5], 29.3 µM; in experiment [6], 16.4 µM. The TGI amounted to 23.5 µM in experiment [7], 5.68 µM in experiment [8], 19.2 µM in experiment [9] and 21.8 µM in experiment [10].

In the case of `Cn1cc(CNCC2CCN(c3ncc(C(=O)NO)cn3)CC2)c2ccccc21`, the GI50 in experiment [1] was 0.0119 µM; in experiment [2], less than 0.0151 µM; in [3] it was 0.0351 µM; in [4], less than 0.0116 µM; in experiment [5], 0.144 µM; in experiment [6] it was 0.0124 µM. The GI50 was 0.0122 µM in experiment [7], 0.0414 µM in [8], 0.0114 µM in experiment [9] and 0.0169 µM in experiment [10]. For the same compound, the TGI in [1] turned out to be 0.363 µM; in experiment [2] it was 0.334 µM; in experiment [3], 1.09 µM; in experiment [4], 49.3 µM; in experiment [5], 15.8 µM; in experiment [6], 4.41 µM. Further, the TGI in [7] was 0.102 µM; in experiment [8] it was 8.89 µM; in experiment [9], 1.25 µM; in [10] it was 0.188 µM.

Consider `O=C1CC(=O)OC(c2ccc([N+](=O)[O-])cc2)O1`, for which the GI50 in experiment [1] was 1.66 µM; in experiment [2], 2.31 µM; in experiment [3] it was 2.07 µM; in experiment [4], 2.45 µM; in [5], 2.25 µM; in [6], 1.63 µM. Moreover, the GI50 in experiment [7] is 1.93 µM; in experiment [8], 1.81 µM; in experiment [9], 1.97 µM; in [10] it was 4.85 µM. In addition, the TGI in [1] is 3.36 µM; in experiment [2], 5.85 µM; in experiment [3], 5.5 µM; in experiment [4], 8.79 µM; in experiment [5] it was 7.15 µM; in [6] it was 3.2 µM. Also, the TGI was found to be 4.08 µM in experiment [7], 3.36 µM in experiment [8], 4 µM in experiment [9] and 14 µM in [10].

Take `Fc1cccc(Cl)c1/C=N\N=C1c2ccccc2-c2ccccc21`: the TGI in experiment [1], in experiment [2], in experiment [3], in experiment [4], in experiment [5] and in experiment [6] was more than 100 µM in each case. For the same compound, the TGI in [7], in experiment [8], in experiment [9] and in experiment [10] was more than 100 µM in each case.

As for `O=C1CCCN1CC#CCN1CCCC1`, the GI50 in [1], in experiment [2], in experiment [3], in [4], in experiment [5] and in experiment [6] was more than 100 µM in each case. In addition, the GI50 in experiment [7], in experiment [8], in experiment [9] and in experiment [10] was more than 100 µM each time. In addition, the TGI in experiment [1], in [2], in [3], in experiment [4], in [5] and in experiment [6] was more than 100 µM in each case. Further, the TGI in [7], in [8], in experiment [9] and in experiment [10] was more than 100 µM throughout.

For `CCN1CSC(=S)N(CC)C1`, the TGI in experiment [1], in experiment [2], in experiment [3], in experiment [4], in experiment [5] and in experiment [6] was more than 100 µM in each case. In addition, the TGI in experiment [7], in experiment [8], in experiment [9] and in experiment [10] was more than 100 µM each time.

`COc1ccc(Cl)cc1Nc1nc(C(F)(F)F)ccc1C(=O)N/N=C/c1cc(OC)c(OC)c(OC)c1`: the GI50 was 1.65 µM in experiment [1]; 1.76 µM in experiment [2]; 3.35 µM in [3]; 1.27 µM in [4]; 1.23 µM in [5]; 4.27 µM in [6]. Moreover, the GI50 was 1.83 µM in experiment [7], 1.78 µM in [8], 1.61 µM in [9] and 1.09 µM in experiment [10]. Also, the TGI was 3.96 µM in experiment [1]; 5.35 µM in [2]; 12.6 µM in experiment [3]; more than 100 µM in experiment [4]; 11.9 µM in experiment [5]; more than 100 µM in [6]. The TGI in experiment [7] is 9.26 µM; in experiment [8] it was 3.68 µM; in experiment [9], 3.93 µM; in experiment [10] it was 2.92 µM.

`C/C(=N\NC(N)=S)c1nc2ccc(Cl)cc2[nH]1`: the GI50 in experiment [1] was 5.05 µM; in experiment [2], 2.81 µM; in [3], 2.48 µM; in [4] it was 2.11 µM; in experiment [5], 0.857 µM; in [6], 1.97 µM. The GI50 in experiment [7] is 5.7 µM; in experiment [8] it was 1.59 µM; in experiment [9] it was 1.8 µM; in [10], 1.33 µM. In addition, the TGI in experiment [1] is more than 50 µM; in experiment [2], 44.6 µM; in experiment [3] it was 10.1 µM; in experiment [4], more than 50 µM; in experiment [5] it was 12.5 µM; in [6], 8.8 µM. Besides, the TGI came to 35.9 µM in experiment [7], 7.96 µM in [8], 28.5 µM in [9] and 6.33 µM in experiment [10].

For the compound `CC1CCN(CC(=O)N2c3ccccc3Sc3cc4ccccc4cc32)CC1`, the TGI in experiment [1], in [2], in experiment [3], in experiment [4], in experiment [5] and in experiment [6] was more than 100 µM in each case. The TGI in [7], in [8], in [9] and in experiment [10] was more than 100 µM each time.

For `O=Cc1ccc(-c2cccs2)s1`, the TGI in experiment [1] was 15.1 µM; in experiment [2], more than 100 µM; in [3], 4.85 µM; in experiment [4] it was more than 100 µM; in experiment [5], more than 100 µM; in experiment [6] it was more than 100 µM. Besides, the TGI in experiment [7], in experiment [8], in experiment [9] and in experiment [10] was more than 100 µM throughout.
